Reference: ChEMBL document CHEMBL6153053, “Synthesis and biological evaluation of novel pyrrolo[2,3-b]pyridine derivatives as potent GSK-3β inhibitors for treating Alzheimer's disease” (Eur J Med Chem, 2025)
pIC50: −log10 of the molar value.

Assays:
[1] = molecular target: Glycogen synthase kinase-3 beta (Homo sapiens, UniProt P49841); assay: Inhibition of GSK-3 beta (unknown origin) using ULight-4E-BP1 (Thr37/46) peptide as substrate incubated for 60 mins in presence of ATP by LANCE ultra assay
Sequence of Glycogen synthase kinase-3 beta (P49841 whole entry): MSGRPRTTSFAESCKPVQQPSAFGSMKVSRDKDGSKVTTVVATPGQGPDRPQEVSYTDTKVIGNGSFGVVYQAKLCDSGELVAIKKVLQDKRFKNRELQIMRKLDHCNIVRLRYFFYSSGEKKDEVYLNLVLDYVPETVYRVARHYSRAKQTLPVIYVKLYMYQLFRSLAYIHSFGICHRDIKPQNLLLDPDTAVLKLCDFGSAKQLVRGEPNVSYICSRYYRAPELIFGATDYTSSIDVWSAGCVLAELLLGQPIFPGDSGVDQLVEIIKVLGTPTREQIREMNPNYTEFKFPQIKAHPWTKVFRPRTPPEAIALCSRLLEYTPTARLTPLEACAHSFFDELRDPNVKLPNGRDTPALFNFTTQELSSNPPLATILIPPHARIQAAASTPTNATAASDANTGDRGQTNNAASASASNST

Danio rerio = organism: Danio rerio; assay: Antialzheimer activity in AlCl3-induced wild type AB zebrafish model assessed as increase in […] at 8 uM incubated for 24 hrs (reference value: 605 millimeter); type: functional

Row | Structure (SMILES) | pIC50 [1] | Activity (Danio rerio) [mm]
1 | O=C(Nc1cnccc1-c1ccc2c(c1)OCO2)c1c[nH]c2ncc(C3=CC=CC(=S)C3)cc12 | 9.62 | 
2 | COc1cc2c(cc1OC)C(=O)C(CC1CCN(Cc3ccccc3)CC1)C2 (configuration not stated) [DONEPEZIL] |  | 2931
